In PMC9029893 (International Journal of Molecular Sciences, 2022):

Assays:
[1] = test system: HUVEC cells; experiment: HUVEC integrity in RTCA-DP system (normalized cell index); type: cell-based, human
Method: The effects of sulfonamides 1–8 on the integrity and barrier properties of HUVEC were examined in real-time using a cell electric impedance monitoring system (Real-Time Cell Analyzer; Roche & ACEA Biosciences, Santa Clara, CA, USA), which is based on tracking electrical impedance signals. Any changes in cell status, adhesion, and morphology are expressed by parameter Cell Index (CI). The experimental protocol has been described previously. Briefly, the cells were seeded at a density of 15,000 cells per well on E-16 plates (Roche & ACEA Biosciences, Santa Clara, CA, USA), and cultured until the cells achieved plateau phase. Then, the medium was discarded from each well, and the solutions of the test compounds dissolved in cell culturing medium (100 μL) or pure medium (100 μL, control) were added. The measurements were then carried out for 48 h. The results are presented as mean ± SD of ‘normalized cell index’ (nCI), which is calculated by the division of a CI value at a certain time point by the CI value at a reference time point. The experiments were conducted in multiplicate (n = 4–6). The method was validated and the coefficient of variability (CV) was calculated as 9.17%–15.2%, depending on the measured time point (n = 6).

[2] = target: antithrombin III (AT) (Homo sapiens, UniProt P01008); experiment: Activity of antithrombin III (AT); type: biochemical
Method: The activity of AT in human plasma was estimated spectrophotometrically using a diagnostic laboratory method. […] In the control samples, 10 μL of distilled water and methanol (1:1) was used. The reaction was initiated by the addition of a chromogenic substrate dissolved in water for injection; as a result, p-nitroaniline was released proportionally to the level of AT. The evaluation of AT level was performed on the basis of a calibration curve performed on calibrator diluted in the range 1:30–1:120 (λ = 405 nm) by the coagulometer program (CoagChrom-3003 Bio Ksel, Grudziadz, Poland). The coefficient of variability for the method (CV) was 2.69%, and the reference range was 80%–130%.

[3] = test system: HUVEC cells; experiment: HUVEC migration, wound-healing assay (JuLI Stage); type: cell-based, human
Method: The effects of compounds 1–5 on HUVEC migration were determined using the JuLI™ Stage system (NanoEntek, Seoul, Korea): a real-time cell history recorder allowing for live cell imaging and analysis. The procedure for the migration experiments has been published elsewhere in more detail. Concisely, HUVECs were seeded at a density of 10,000 cells per well on 96-well plates and incubated at standard conditions for 24 h. Following this, a wound was made with a scratcher (NanoEntek, Seoul, Korea). The cells were then rinsed with 100 μL of fresh EGM2 medium, and treated with biguanides 1–5 at the concentrations of 0.3 and 1.0 mM. The cells were incubated and monitored continuously every 10 min for 36 h at 37 °C, 5% CO2. Analysis of obtained images of cell migration, and measurements of the width of the scratch area were performed using dedicated software (NanoEntek, Seoul, Korea). The results were presented as mean ± SD, n = 4–8. The CV for the method was estimated as 14.2–24.4%, depending on the time point (n = 8).

Chain of antithrombin III (AT) (P01008 33-464): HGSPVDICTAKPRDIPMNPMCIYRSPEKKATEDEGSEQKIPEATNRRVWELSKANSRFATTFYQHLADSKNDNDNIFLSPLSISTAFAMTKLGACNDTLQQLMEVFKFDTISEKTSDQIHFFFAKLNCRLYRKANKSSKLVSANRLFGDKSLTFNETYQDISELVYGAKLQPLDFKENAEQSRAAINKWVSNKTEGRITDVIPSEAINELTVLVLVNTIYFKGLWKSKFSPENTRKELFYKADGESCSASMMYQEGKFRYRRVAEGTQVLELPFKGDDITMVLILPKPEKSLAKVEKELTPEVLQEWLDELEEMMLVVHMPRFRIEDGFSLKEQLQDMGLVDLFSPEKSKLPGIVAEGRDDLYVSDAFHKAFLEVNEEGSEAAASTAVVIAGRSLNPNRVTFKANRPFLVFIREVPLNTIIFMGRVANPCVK

| SMILES | normalized Cell Index (nCI) ([1]; 0.3 mM, 3 hours) | normalized Cell Index (nCI) ([1]; 0.3 mM, 6 hours) | normalized Cell Index (nCI) ([1]; 0.3 mM, 12 hours) | normalized Cell Index (nCI) ([1]; 0.3 mM, 24 hours) | normalized Cell Index (nCI) ([1]; 0.3 mM, 36 hours) | normalized Cell Index (nCI) ([1]; 1.0 mM, 3 hours) | normalized Cell Index (nCI) ([1]; 1.0 mM, 6 hours) | normalized Cell Index (nCI) ([1]; 1.0 mM, 12 hours) | normalized Cell Index (nCI) ([1]; 1.0 mM, 24 hours) | normalized Cell Index (nCI) ([1]; 1.0 mM, 36 hours) | activity of AT III ([2]; 0.06 mM) [%] | activity of AT III ([2]; 0.3 mM) [%] | activity of AT III ([2]; 0.6 mM) [%] | activity of AT III ([2]; 1.5 mM) [%] | wound width ([3]; 0.3 mM, 6 hours) [µm] | wound width ([3]; 0.3 mM, 12 hours) [µm] | wound width ([3]; 0.3 mM, 18 hours) [µm] | wound width ([3]; 0.3 mM, 24 hours) [µm] | wound width ([3]; 0.3 mM, Start) [µm] | wound width ([3]; 1.0 mM, 6 hours) [µm] | further results |
| --- | --- | --- | --- | --- | --- | --- | --- | --- | --- | --- | --- | --- | --- | --- | --- | --- | --- | --- | --- | --- | --- |
| CCCCCCCCS(=O)(=O)NC(N)=NC(=N)N(C)C [Compound 2] | 0.608 ± 0.038 | 0.693 ± 0.022 | 0.676 ± 0.047 | 0.522 ± 0.030 | 0.761 ± 0.008 | 0.652 ± 0.006 | 0.706 ± 0.007 | 0.719 ± 0.005 | 0.731 ± 0.002 | 0.379 ± 0.032 | 121.00 ± 4.90 | 127.75 ± 10.44 | 125.75 ± 10.87 | 129.00 ± 11.46 | 493.8 ± 133.1 | 442.4 ± 142.9 | 351.4 ± 82.6 | 328.6 ± 56.9 | 637.4 ± 116.3 | 590.8 ± 40.2 | wound width ([3]; 1.0 mM, 12 hours): 541.5 ± 99.2 µm; wound width ([3]; 1.0 mM, 18 hours): 453.1 ± 106.1 µm; wound width ([3]; 1.0 mM, 24 hours): 357.2 ± 68.1 µm; wound width ([3]; 1.0 mM, Start): 712.4 ± 56.5 µm |
| CN(C)C(=N)N=C(N)NS(=O)(=O)C1CCCCC1 [Compound 3] | 0.680 ± 0.083 | 0.837 ± 0.213 | 0.927 ± 0.212 | 0.969 ± 0.156 | 0.714 ± 0.035 | 0.233 ± 0.039 | 0.554 ± 0.047 | 0.616 ± 0.042 | 0.748 ± 0.061 | 0.694 ± 0.054 | 113.00 ± 10.13 | 117.25 ± 5.50 | 131.75 ± 6.65 | 136.75 ± 11.32 | 606.7 ± 149.4 | 486.0 ± 131.2 | 441.9 ± 99.5 | 395.9 ± 104.7 | 675.1 ± 94.6 | 494.6 ± 106.9 | wound width ([3]; 1.0 mM, 12 hours): 414.1 ± 103.5 µm; wound width ([3]; 1.0 mM, 18 hours): 385.2 ± 94.5 µm; wound width ([3]; 1.0 mM, 24 hours): 331.3 ± 62.5 µm; wound width ([3]; 1.0 mM, Start): 609.3 ± 73.0 µm |
| CCCCS(=O)(=O)NC(N)=NC(=N)N(C)C [Compound 1] | 0.832 ± 0.091 | 0.981 ± 0.085 | 1.177 ± 0.149 | 1.207 ± 0.149 | 0.875 ± 0.090 | 0.440 ± 0.032 | 0.676 ± 0.062 | 0.791 ± 0.067 | 0.940 ± 0.077 | 0.858 ± 0.054 | 110.25 ± 8.34 | 115.25 ± 6.18 | 120.00 ± 2.71 | 123.00 ± 5.2 | 491.9 ± 31.7 | 421.2 ± 5.9 | 365.2 ± 35.8 | 336.7 ± 39.0 | 605.8 ± 38.63 | 461.9 ± 33.4 | wound width ([3]; 1.0 mM, 12 hours): 375.1 ± 29.9 µm; wound width ([3]; 1.0 mM, 18 hours): 344.4 ± 32.8 µm; wound width ([3]; 1.0 mM, 24 hours): 337.5 ± 47.3 µm; wound width ([3]; 1.0 mM, Start): 589.1 ± 36.3 µm |
